Measured values as given in patent publication US8871934B2, “Fluorene compound and pharmaceutical use thereof” (Japan Tobacco Inc., priority 2008, dated 2014).
Where two headings read alike, the source gives them in different places.

Target: human PDHK2 (hPDHK2) (Homo sapiens (Human), UniProt Q15119)
Assay: Inhibitory action of PDHK activity in vitro (kinase reaction, residual PDH activity measured)
Type: biochemical
[1] = PDHK inhibitory activity, class symbol of IC50
[2] = read-out: PDHK inhibitory activity IC50

| Compound | IC50 [1] [nM] | IC50 [2] [nM] |
| --- | --- | --- |
| OC1(C(F)(F)F)c2ccccc2-c2ccc(/C=C/c3ccccc3)cc21 (centres unmarked) [compound 252] | > 1000 | 1270 |
| OC1(C(F)(F)F)c2ccccc2-c2ccc(OCC3CCCCC3)cc21 (centres unmarked) [compound 253] | > 1000 | 1950 |
| OC1(C(F)(F)F)c2ccccc2-c2ccc(OCC3CCCC3)cc21 (centres unmarked) [compound 254] | > 1000 | 1130 |
| OC1(C(F)(F)F)c2ccccc2-c2ccc(OCC3CCC3)cc21 (centres unmarked) [compound 255] | > 1000 | 1080 |
| OC1(C(F)(F)F)c2ccccc2-c2ccc(OCC3CC3)cc21 (centres unmarked) [compound 256] | > 1000 | 1000 |
| CCOC(=O)CCCOc1ccc2c(c1)C(O)(C(F)(F)F)c1ccccc1-2 (centres unmarked) [compound 257] | 100 to 1000 | 567 |
| O=C(O)CCCOc1ccc2c(c1)C(O)(C(F)(F)F)c1ccccc1-2 (centres unmarked) [compound 258] | > 1000 | 2620 |
| OC1(C(F)(F)F)c2ccccc2-c2ccc(OC3CCCC3)cc21 (centres unmarked) [compound 259] | > 1000 | 1390 |
| OC1(C(F)(F)F)c2ccccc2-c2ccc(OC3CCCCC3)cc21 (centres unmarked) [compound 260] | > 1000 | 2810 |
| OC1(C(F)(F)F)c2ccccc2-c2ccc(OCc3cccs3)cc21 (centres unmarked) [compound 261] | > 1000 | 1400 |
| OC1(C(F)(F)F)c2ccccc2-c2ccc(OCc3ccccc3)cc21 (centres unmarked) [compound 262] | > 1000 | 1360 |
| Cn1cc(-c2cccc3c2-c2ccccc2C3(O)C(F)(F)F)cn1 (centres unmarked) [compound 263] | 100 to 1000 | 133 |
| CC(C)COc1ccc2c(c1)C(O)(C(F)(F)F)c1ccccc1-2 (centres unmarked) [compound 264] | > 1000 | 1170 |
| CCCOc1ccc2c(c1)C(O)(C(F)(F)F)c1ccccc1-2 (centres unmarked) [compound 265] | > 1000 | 1260 |
| OC1(C(F)(F)F)c2ccccc2-c2ccc(-c3cc(Cl)cc(Cl)c3)cc21 (centres unmarked) [compound 266] | > 1000 | 1560 |
| Cc1nnc(-c2cccc3c2-c2ccccc2C3(O)C(F)(F)F)o1 (centres unmarked) [compound 267] | > 1000 | 1200 |
| OC1(C(F)(F)F)c2ccccc2-c2c(C3CC3)cccc21 (centres unmarked) [compound 268] | > 1000 | > 10000 |
| CC1CCN(c2ccc3c(c2)C(O)(C(F)(F)F)c2ccccc2-3)C1 (centres unmarked) [compound 269] | > 1000 | 1340 |
| OCCCCOc1ccc2c(c1)C(O)(C(F)(F)F)c1ccccc1-2 (centres unmarked) [compound 270] | 100 to 1000 | 533 |
| CC(C)(C)C(=O)N1CCN(c2cc(Cl)c3c(c2)C(O)(C(F)(F)F)c2ccccc2-3)CC1 (centres unmarked) [compound 271] | < 100 | 56 |
| OC1(C(F)(F)F)c2ccccc2-c2c(Br)cc(Cl)cc21 (centres unmarked) [compound 272] | 100 to 1000 | 342 |
| Cc1ccc(-c2cccc3c2-c2ccccc2C3(O)C(F)(F)F)cn1 (centres unmarked) [compound 273] | 100 to 1000 | 396 |
| Cc1nc(-c2cccc3c2-c2ccccc2C3(O)C(F)(F)F)no1 (centres unmarked) [compound 274] | > 1000 | 7490 |
| Cc1ncc(-c2cccc3c2-c2ccccc2C3(O)C(F)(F)F)o1 (centres unmarked) [compound 275] | 100 to 1000 | 278 |
| CC(C)CCOc1ccc2c(c1)C(O)(C(F)(F)F)c1ccccc1-2 (centres unmarked) [compound 276] | > 1000 | 1010 |

| Compound | IC50 [1] [nM] | IC50 [2] [nM] |
| --- | --- | --- |
| OC1(C(F)(F)F)c2ccccc2-c2c(-c3cn[nH]c3)cccc21 (centres unmarked) [compound 277] | 100 to 1000 | 125 |
| CCCCCOc1ccc2c(c1)C(O)(C(F)(F)F)c1ccccc1-2 (centres unmarked) [compound 278] | 100 to 1000 | 862 |
| CC(C)(C)COc1ccc2c(c1)C(O)(C(F)(F)F)c1ccccc1-2 (centres unmarked) [compound 279] | > 1000 | 1850 |
| NC(=O)CCCOc1ccc2c(c1)C(O)(C(F)(F)F)c1ccccc1-2 (centres unmarked) [compound 280] | > 1000 | 1510 |
| CNC(=O)CCCOc1ccc2c(c1)C(O)(C(F)(F)F)c1ccccc1-2 (centres unmarked) [compound 281] | > 1000 | 1000 |
| CN(C)C(=O)CCCOc1ccc2c(c1)C(O)(C(F)(F)F)c1ccccc1-2 (centres unmarked) [compound 282] | 100 to 1000 | 226 |
| CCOC(=O)CCCCOc1ccc2c(c1)C(O)(C(F)(F)F)c1ccccc1-2 (centres unmarked) [compound 283] | 100 to 1000 | 571 |
| OCCCOc1ccc2c(c1)C(O)(C(F)(F)F)c1ccccc1-2 (centres unmarked) [compound 284] | > 1000 | 1170 |
| CC(C)(C)C(=O)N1CCN(c2cc(-c3cccnc3)c3c(c2)C(O)(C(F)(F)F)c2ccccc2-3)CC1 (centres unmarked) [compound 285] | < 100 | 20 |
| Cn1cc(-c2cc(Cl)cc3c2-c2ccccc2C3(O)C(F)(F)F)cn1 (centres unmarked) [compound 286] | < 100 | 17 |
| O=C(O)COc1ccc2c(c1)C(O)(C(F)(F)F)c1ccccc1-2 (centres unmarked) [compound 287] | > 1000 | > 10000 |
| NC(=O)COc1ccc2c(c1)C(O)(C(F)(F)F)c1ccccc1-2 (centres unmarked) [compound 288] | 100 to 1000 | 635 |
| CNC(=O)COc1ccc2c(c1)C(O)(C(F)(F)F)c1ccccc1-2 (centres unmarked) [compound 289] | 100 to 1000 | 641 |
| CN(C)C(=O)COc1ccc2c(c1)C(O)(C(F)(F)F)c1ccccc1-2 (centres unmarked) [compound 290] | 100 to 1000 | 793 |
| O=C(O)CCOc1ccc2c(c1)C(O)(C(F)(F)F)c1ccccc1-2 (centres unmarked) [compound 291] | > 1000 | 5830 |
| OCCOc1ccc2c(c1)C(O)(C(F)(F)F)c1ccccc1-2 (centres unmarked) [compound 292] | > 1000 | 2570 |
| CC1CCCN1c1ccc2c(c1)C(O)(C(F)(F)F)c1ccccc1-2 (centres unmarked) [compound 293] | > 1000 | 4950 |
| CCCCCCOc1ccc2c(c1)C(O)(C(F)(F)F)c1ccccc1-2 (centres unmarked) [compound 294] | 100 to 1000 | 710 |
| O=C(O)CCCCOc1ccc2c(c1)C(O)(C(F)(F)F)c1ccccc1-2 (centres unmarked) [compound 295] | 100 to 1000 | 861 |
| OCCCCCOc1ccc2c(c1)C(O)(C(F)(F)F)c1ccccc1-2 (centres unmarked) [compound 296] | 100 to 1000 | 180 |
| CN(CCO)C(=O)c1ccc2c(c1)C(O)(C(F)(F)F)c1ccccc1-2 (centres unmarked) [compound 297] | > 1000 | 3030 |
| OCCCCCCOc1ccc2c(c1)C(O)(C(F)(F)F)c1ccccc1-2 (centres unmarked) [compound 298] | 100 to 1000 | 177 |
| CN(C)C(=O)CCCCOc1ccc2c(c1)C(O)(C(F)(F)F)c1ccccc1-2 (centres unmarked) [compound 299] | 100 to 1000 | 235 |
| OC1(C(F)(F)F)c2ccccc2-c2c(-c3cncnc3)cccc21 (centres unmarked) [compound 300] | 100 to 1000 | 114 |
| NC(=O)CCOc1ccc2c(c1)C(O)(C(F)(F)F)c1ccccc1-2 (centres unmarked) [compound 301] | > 1000 | 1590 |

| Compound | IC50 [1] [nM] | IC50 [2] [nM] |
| --- | --- | --- |
| CNC(=O)CCOc1ccc2c(c1)C(O)(C(F)(F)F)c1ccccc1-2 (centres unmarked) [compound 302] | > 1000 | 1170 |
| CN(C)C(=O)CCOc1ccc2c(c1)C(O)(C(F)(F)F)c1ccccc1-2 (centres unmarked) [compound 303] | 100 to 1000 | 755 |
| COC(=O)C1CCN1C(=O)c1ccc2c(c1)C(O)(C(F)(F)F)c1ccccc1-2 (centres unmarked) [compound 304] | 100 to 1000 | 723 |
| CNC(=O)CCCCOc1ccc2c(c1)C(O)(C(F)(F)F)c1ccccc1-2 (centres unmarked) [compound 305] | 100 to 1000 | 562 |
| NC(=O)CCCCOc1ccc2c(c1)C(O)(C(F)(F)F)c1ccccc1-2 (centres unmarked) [compound 306] | 100 to 1000 | 453 |
| CCCN(C)C(=O)c1ccc2c(c1)C(O)(C(F)(F)F)c1ccccc1-2 (centres unmarked) [compound 307] | > 1000 | 3200 |
| CCCCN(C)C(=O)c1ccc2c(c1)C(O)(C(F)(F)F)c1ccccc1-2 (centres unmarked) [compound 308] | > 1000 | 2670 |
| OC1(C(F)(F)F)c2ccccc2-c2c(-c3ccsc3)cccc21 (centres unmarked) [compound 309] | > 1000 | > 10000 |
| O=C(NCCO)c1ccc2c(c1)C(O)(C(F)(F)F)c1ccccc1-2 (centres unmarked) [compound 310] | > 1000 | > 10000 |
| O=C(NCCCO)c1ccc2c(c1)C(O)(C(F)(F)F)c1ccccc1-2 (centres unmarked) [compound 311] | > 1000 | 7150 |
| O=C(NCCCCO)c1ccc2c(c1)C(O)(C(F)(F)F)c1ccccc1-2 (centres unmarked) [compound 312] | > 1000 | 1820 |
| Cc1n[nH]c(-c2cccc3c2-c2ccccc2C3(O)C(F)(F)F)n1 (centres unmarked) [compound 313] | > 1000 | > 10000 |
| O=C(O)C1CCN1C(=O)c1ccc2c(c1)C(O)(C(F)(F)F)c1ccccc1-2 (centres unmarked) [compound 314] | > 1000 | > 10000 |
| CCNC(=O)c1ccc2c(c1)C(O)(C(F)(F)F)c1ccccc1-2 (centres unmarked) [compound 315] | > 1000 | 6370 |
| CCCNC(=O)c1ccc2c(c1)C(O)(C(F)(F)F)c1ccccc1-2 (centres unmarked) [compound 316] | > 1000 | 4480 |
| OC1(C(F)(F)F)c2ccccc2-c2ccc(Cc3ccccc3)cc21 (centres unmarked) [compound 317] | > 1000 | 2310 |
| O=C(O)CCCCCOc1ccc2c(c1)C(O)(C(F)(F)F)c1ccccc1-2 (centres unmarked) [compound 318] | 100 to 1000 | 553 |
| CN(CCCCO)C(=O)c1ccc2c(c1)C(O)(C(F)(F)F)c1ccccc1-2 (centres unmarked) [compound 319] | > 1000 | 3090 |
| NCCOc1ccc2c(c1)C(O)(C(F)(F)F)c1ccccc1-2 (centres unmarked) [compound 320] | > 1000 | 8760 |
| CNCCOc1ccc2c(c1)C(O)(C(F)(F)F)c1ccccc1-2 (centres unmarked) [compound 321] | > 1000 | 5380 |
| CN(C)CCOc1ccc2c(c1)C(O)(C(F)(F)F)c1ccccc1-2 (centres unmarked) [compound 322] | > 1000 | 2500 |
| CC(C)(C)OC(=O)NCCOc1ccc2c(c1)C(O)(C(F)(F)F)c1ccccc1-2 (centres unmarked) [compound 323] | 100 to 1000 | 362 |
| CN(CCOc1ccc2c(c1)C(O)(C(F)(F)F)c1ccccc1-2)C(=O)OC(C)(C)C (centres unmarked) [compound 324] | 100 to 1000 | 203 |
